Earlier results, collected in patent publication US20070021352A1, “PREVENTION AND TREATMENT OF HEARING DISORDERS” (Cypress Bioscience, Inc., priority 2005, published 2007).

How the values were obtained:
[1] = elderly patients; preliminary results
[2] = humans; daily ingestion of 122 mg for 10 days
[3] = normal, healthy volunteers; daily ingestion of 6.7 mmol; rifle noise six days per week for eight weeks; vs placebo (sodium aspartate)
cochlea = conditions: guinea pig model; local administration

CN(C)CCCC1(c2ccc(F)cc2)OCc2cc(C#N)ccc21 (stereo not shown) [citalopram, 1-[3-(dimethylamino)propyl]-1-(4-fluorophenyl)-1,3-dihydro-5-isobenzofurancarbonitrile]
impact on auditory processes [1]: positive impact on auditory processes in the elderly

[Mg] [magnesium]
noise-induced temporary threshold shift [2]: protect against noise-induced temporary threshold shift

N[C@@H](CC(=O)[O-])C(=O)[O-].[Mg+2] [magnesium aspartate]
permanent threshold shift [3]: significant effect on permanent threshold shift

CCN(CC)CCn1c(=O)c(Cc2ccc(OC)cc2)nc2ccccc21 [caroverine, 1-[2-(diethylamino)ethyl]-3-[(4-methoxyphenyl)methyl]-2-(1H)-quinoxalinone]
protection of cochlea from noise trauma (cochlea): protection of cochlea from noise trauma
